The values below come from patent US10570179B2, “Substituted urea depsipeptide analogs as activators of the CLPP endopeptidase” (priority 2016, dated 2020).

Data set [1] in a line: Microsomal metabolic stability. The format is in vitro ADME, mouse. Put shortly:
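CD-1 mouse liver microsomes (0.6381 mg/mL protein microsomal solution, 0.1 M potassium phosphate pH 7.4 with EDTA) were incubated with compound and an NADPH-regenerating system at 37 °C, in triplicate. Acetonitrile/warfarin quench at 0, 15, 30, 60, 120 and 240 min, then LCMS. Half-life came from a first-order least-squares fit.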

A short description of the next data set: Solubility determination. The format is physicochemical. The note with it: for solubility kinetic at 10 min: 22 °C, aqueous buffer, kinetic from dmso stock. Put shortly: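 DMSO stock spiked into DPBS at 100 µM final, in triplicate, shaken 10 min, then centrifuged 20 min at 22 °C. Supernatant quantified by UPLC-UV and single-ion-recording MS against DMSO calibration standards (0.098–100 µM), using 1/x²-weighted linear regression.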

The nature of data set [2]: Plasma stability assay. The format is in vitro ADME, human. An outline of the steps:
(§1)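 Compounds at 10 μM final in human or mouse plasma, incubated at 37 °C and sampled at 0, 3, 24 and 48 h in triplicate. Reactions quenched with cold acetonitrile containing warfarin internal standard; parent measured by LC-MS. Half-life from least-squares first-order fit.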

Data set [3] in a line: Plasma stability assay. The format is in vitro ADME, mouse. Put shortly:
as §1

Where [4] appears, read: microsomal metabolic stability half-life, mouse liver microsomes.
Where [5] appears, read: solubility in DPBS, 100 μM test samples, LCMS, read-out: LCMS.
[6] abbreviates: plasma stability half-life, human plasma, 37° C.
[7] abbreviates: plasma stability half-life, mouse plasma, 37° C.

SMILES strings stand for the structures. Values after ≈ are worked out from the molar mass of the structure shown. Like-named read-outs stand apart in the source and are kept apart here. Numbered stars: 1 amine (or outer) side, 2 acyl side, 3 side chain; on linkers, the order of the positions; unused ones are H or OH. Bridge positions count the residues as written; N and C are the ends. Square brackets hold non-standard residues; d marks the D form. Peptide text beside a SMILES is read from it. * marks the point of attachment. X5 = O=C([C@@H]1C[C@@H](OP(=O)(O)O)CN1[*:1])[*:2]; Piperazine(2S-CO,4-Me) = CN1CCN[C@H](C(=O)O)C1; Phe(3,5-F2) = N[C@@H](Cc1cc(F)cc(F)c1)C(=O)O; NH(1-Me-indolin-5-yl) = CN1CCc2cc(N*)ccc21; Phe(3-Cl) = N[C@@H](Cc1cccc(Cl)c1)C(=O)O; Morpholine(3S-CO) = O=C(O)[C@@H]1COCCN1; Phe(3-Me) = Cc1cccc(C[C@H](N)C(=O)O)c1; NH(4-Cl-2-F-phenyl) = Fc1cc(Cl)ccc1N*; Pro(4R-Me) = C[C@H]1CN[C@H](C(=O)O)C1; Hyp = O=C(O)[C@@H]1C[C@@H](O)CN1; NH(4-Me-phenyl) = Cc1ccc(N*)cc1; aThr = C[C@H](O)[C@H](N)C(=O)O; Pip = O=C(O)[C@@H]1CCCCN1; X3 = c1cc2c(cc1N*)OCCO2; CO = O=C([*:1])[*:2]; X2 = Fc1cc(N*)ccc1Cl Bounds are passed on as bounds.

`Cc1cccc(C[C@H](NC(=O)Nc2ccc3c(c2)OCCO3)C(=O)N[C@@H]2C(=O)N3C[C@H](O)C[C@H]3C(=O)N3CCCC[C@H]3C(=O)N[C@@H](C)C(=O)N3C[C@H](C)C[C@H]3C(=O)O[C@H]2C)c1` [Compound 28, (S)-2-(3-(2,3-DIHYDROBENZO[B][1,4]DIOXIN-6-YL)UREIDO)-N-((2R,6S,8AS,14AS,16R,20S,21S,23AS)-16-HYDROXY-2,6,21-TRIMETHYL-5,8,14,19,23-PENTAOXOOCTADECAHYDRO-1H,5H,14H,19H-PYRIDO[2,1-I]DIPYRROLO[2,1-C:2′,1′-L][1]OXA[4,7,10,13]TETRAAZACYCLOHEXADECIN-20-YL)-3-(M-TOLYL)PROPANAMIDE] ({X3-CO}-[Phe(3-Me)][aThr][Hyp][Pip]A[Pro(4R-Me)]; ester 2-C): the “Mouse” value in data set [1] (CD-1, mouse, pH 7.4) was 0.79 ± .795 h. Also, in the data set “Solubility determination”, the “μsol (μM)” value came to 30.2 ± 0.2 µM and the solubility kinetic at 10 min stood at 34.7 ± 4.7 µM (≈ 29.4 µg/mL). In “Plasma stability assay [2]” (human, 10 μM), the “Human” value is more than 50 h. For the same molecule, the “Mouse” value in “Plasma stability assay [3]” (mouse, 10 μM) was more than 50 h.
For the molecule `Cc1cccc(C[C@H](NC(=O)Nc2ccc(Cl)cc2F)C(=O)N[C@@H]2C(=O)N3C[C@H](OP(=O)(O)O)C[C@H]3C(=O)N3CCCC[C@H]3C(=O)N[C@@H](C)C(=O)N3C[C@H](C)C[C@H]3C(=O)O[C@H]2C)c1` [Compound 29, (2R,6S,8AS,14AS,16R,20S,21S,23AS)-20-((S)-2-(3-(4-CHLORO-2-FLUOROPHENYL)UREIDO)-3-(M-TOLYL)PROPANAMIDO)-2,6,21-TRIMETHYL-5,8,14,19,23-PENTAOXOOCTADECAHYDRO-1H,5H,14H,19H-PYRIDO[2,1-I]DIPYRROLO[2,1-C:2′,1′-L][1]OXA[4,7,10,13]TETRAAZACYCLOHEXADECIN-16-YL DIHYDROGEN PHOSPHATE] ({NH(4-Cl-2-F-phenyl)-CO}-[Phe(3-Me)][aThr][X5][Pip]A[Pro(4R-Me)]; ester 2-C), the results for the “Mouse” value (in data set [1] (setting [4]); in the data set “Plasma stability assay [3]” (setting [7])) were more than 4 h and 102.25 h, respectively. Moreover, in the data set “Solubility determination” (setting [5]), the solubility kinetic at 10 min was found to be 66.6 ± 6.6 µM. For the same molecule, in “Solubility determination” (solubility), the “μsol (μM)” value turned out to be 58.7 ± 8.7 µM. Moreover, the “Human” value in “Plasma stability assay [2]” (setting [6]) was more than 50 h.
Consider `Cc1ccc(NC(=O)N[C@@H](Cc2cccc(C)c2)C(=O)N[C@@H]2C(=O)N3C[C@H](O)C[C@H]3C(=O)N3CCN(C)C[C@H]3C(=O)N[C@@H](C)C(=O)N3C[C@H](C)C[C@H]3C(=O)O[C@H]2C)cc1` [Compound 30, (S)—N-((6AS,8R,12S,13S,15AS,17R,21S,23AS)-8-HYDROXY-2,13,17,21-TETRAMETHYL-6,11,15,20,23-PENTAOXOOCTADECAHYDRO-2H,6H,11H,15H-PYRAZINO[2,1-I]DIPYRROLO[2,1-C:2′,1′-L][1]OXA[4,7,10,13]TETRAAZACYCLOHEXADECIN-12-YL)-3-(M-TOLYL)-2-(3-(P-TOLYL)UREIDO)PROPANAMIDE] ({NH(4-Me-phenyl)-CO}-[Phe(3-Me)][aThr][Hyp][Piperazine(2S-CO,4-Me)]A[Pro(4R-Me)]; ester 2-C), for which the “Mouse” value in data set [1] (setting [4]) is 6.21 ± .215 h; in “Plasma stability assay [3]” (setting [7]), more than 50 h. Moreover, the solubility kinetic at 10 min in “Solubility determination” (setting [5]) came to 68.8 ± 8.8 µM (≈ 56.2 µg/mL). Moreover, the “μsol (μM)” value in “Solubility determination” (solubility) was 54.5 ± 4.5 µM. In the data set “Plasma stability assay [2]” (setting [6]), the “Human” value is more than 50 h.
With `Cc1cccc(C[C@H](NC(=O)Nc2ccc(Cl)cc2F)C(=O)N[C@@H]2C(=O)N3C[C@H](O)C[C@H]3C(=O)N3CCN(C)C[C@H]3C(=O)N[C@@H](C)C(=O)N3C[C@H](C)C[C@H]3C(=O)O[C@H]2C)c1` [Compound 31, (S)-2-(3-(4-CHLORO-2-FLUOROPHENYL)UREIDO)-N-((6AS,8R,12S,13S,15AS,17R,21S,23AS)-8-HYDROXY-2,13,17,21-TETRAMETHYL-6,11,15,20,23-PENTAOXOOCTADECAHYDRO-2H,6H,11H,15H-PYRAZINO[2,1-I]DIPYRROLO[2,1-C:2′,1′-L][1]OXA[4,7,10,13]TETRAAZACYCLOHEXADECIN-12-YL)-3-(M-TOLYL)PROPANAMIDE] ({NH(4-Cl-2-F-phenyl)-CO}-[Phe(3-Me)][aThr][Hyp][Piperazine(2S-CO,4-Me)]A[Pro(4R-Me)]; ester 2-C), in data set [1] (CD-1, mouse, pH 7.4), the “Mouse” value is 2.65 ± .655 h. Besides, in “Solubility determination”, the “μsol (μM)” value was 54.7 ± 4.7 µM and the solubility kinetic at 10 min came to 68.9 ± 8.9 µM (≈ 58.9 µg/mL). In addition, in the data set “Plasma stability assay [2]” (human, 10 μM), the “Human” value was more than 50 h. In addition, the “Mouse” value in the data set “Plasma stability assay [3]” (mouse, 10 μM) is more than 50 h.
Regarding `C[C@@H]1C[C@H]2C(=O)O[C@@H](C)[C@H](NC(=O)[C@H](Cc3cc(F)cc(F)c3)NC(=O)Nc3ccc4c(c3)CCN4C)C(=O)N3CCC[C@H]3C(=O)N3CCOC[C@H]3C(=O)N[C@@H](C)C(=O)N2C1` [Compound 32] ({NH(1-Me-indolin-5-yl)-CO}-[Phe(3,5-F2)][aThr]P[Morpholine(3S-CO)]A[Pro(4R-Me)]; ester 2-C), in data set [1] (setting [4]), the “Mouse” value was 0.95 ± .95 h. For the same molecule, the solubility kinetic at 10 min in the data set “Solubility determination” (setting [5]) was found to be 71.5 ± 1.5 µM (≈ 60.8 µg/mL). Further, in the data set “Solubility determination” (solubility), the “μsol (μM)” value was 73.4 ± 3.4 µM and the “μsol (μg/mL)” value came out at 62.5 ± 2.1 µg/mL. For the same molecule, in the data set “Plasma stability assay [2]” (setting [6]), the “Human (hr)” value is given as >>48 hr. Moreover, the “Mouse (hr)” value in the data set “Plasma stability assay [3]” (setting [7]) is on record as >>48 hr.
As to `C[C@@H]1C[C@H]2C(=O)O[C@@H](C)[C@H](NC(=O)[C@H](Cc3cccc(Cl)c3)NC(=O)Nc3ccc(Cl)cc3F)C(=O)N3CCC[C@H]3C(=O)N3CCN(C)C[C@H]3C(=O)N[C@@H](C)C(=O)N2C1` [Compound 33] ({NH(4-Cl-2-F-phenyl)-CO}-[Phe(3-Cl)][aThr]P[Piperazine(2S-CO,4-Me)]A[Pro(4R-Me)]; ester 2-C), in data set [1] (CD-1, mouse, pH 7.4), the “Mouse” value was 0.80 ± .805 h. In “Solubility determination”, the “μsol (μM)” value is 17.2 ± 7.2 µM and the solubility kinetic at 10 min came to 12.8 ± 2.8 µM (≈ 11 µg/mL). For the same molecule, the “Human” value in “Plasma stability assay [2]” (human, 10 μM) is more than 50 h. In addition, the “Mouse” value in “Plasma stability assay [3]” (mouse, 10 μM) was more than 50 h.
Regarding `C[C@@H]1C[C@H]2C(=O)OC[C@H](NC(=O)[C@H](Cc3cc(F)cc(F)c3)NC(=O)Nc3ccc(Cl)cc3F)C(=O)N3CCC[C@H]3C(=O)N3CCN(C)C[C@H]3C(=O)N[C@@H](C)C(=O)N2C1` [Compound 34] ({NH(4-Cl-2-F-phenyl)-CO}-[Phe(3,5-F2)]SP[Piperazine(2S-CO,4-Me)]A[Pro(4R-Me)]; ester 2-C), the “Mouse” value in data set [1] (CD-1, mouse, pH 7.4) is 1.18 ± .185 h. Further, in the data set “Solubility determination”, the “μsol (μM)” value came to 38.7 ± 8.7 µM and the solubility kinetic at 10 min stood at 53.6 ± 3.58 µM (≈ 45.4 µg/mL). Also, the “Human” value in the data set “Plasma stability assay [2]” (human, 10 μM) was 26.56 h. In addition, the “Mouse” value in the data set “Plasma stability assay [3]” (mouse, 10 μM) amounted to 21.18 h.
On the same counts, the results for `Cc1cccc(C[C@H](NC(=O)Nc2ccc(Cl)c(F)c2)C(=O)N[C@@H]2C(=O)N3CCC[C@H]3C(=O)N3CCCC[C@H]3C(=O)N[C@@H](C)C(=O)N3C[C@H](C)C[C@H]3C(=O)O[C@H]2C)c1` [Compound 35, (S)-2-(3-(4-CHLORO-3-FLUOROPHENYL)UREIDO)-3-(M-TOLYL)-N-((2R,6S,8AS,14AS,20S,21S,23AS)-2,6,21-TRIMETHYL-5,8,14,19,23-PENTAOXOOCTADECAHYDRO-1H,5H,14H,19H-PYRIDO[2,1-I]DIPYRROLO[2,1-C:2′,1′-L][1]OXA[4,7,10,13]TETRAAZACYCLOHEXADECIN-20-YL)PROPANAMIDE] ({X2-CO}-[Phe(3-Me)][aThr]P[Pip]A[Pro(4R-Me)]; ester 2-C) are 1.54 ± .545 h, 0.9 ± .95 µM, 0.002 ± 0.002 µM (≈ 0.00165 µg/mL), more than 50 h and more than 50 h.
